Test results as given in PMC11764660, “Self-Assembled Peptide Hydrogels PPI45 and PPI47: Novel Drug Candidates for Staphylococcus aureus Infection Treatment” (Gels, 2025).
≈ marks a conversion by molar mass, not a printed value. Positions of bridges follow the written chain, without caps; N, C: chain ends. Residues, ends and D or L forms follow the SMILES beside them.

What was measured:
[1] = system: S. epidermidis ATCC 35984; test: MBC assay; format: cell-based, Staphylococcus epidermidis; details: colony counting, 99.9% criterion
Text: (§1) Microbial cultures are quantified at concentrations surpassing the MIC to ascertain the number of viable bacterial cells. The lowest concentration at which the number of colonies is less than 99.9% at the time of initial inoculation is defined as MBC, which is capable of killing the bacteria.

[2] = system: Streptococcus dysgalactiae CVCC 3938; test: MBC assay; format: cell-based; details: colony counting, 99.9% criterion
Text: as §1

[3] = system: Streptococcus agalactiae ATCC 13813; test: MBC assay; format: cell-based; details: colony counting, 99.9% criterion
Text: as §1

[4] = system: Pseudomonas aeruginosa ATCC 10104; test: MBC assay; format: cell-based; details: colony counting, 99.9% criterion
Text: as §1

[5] = system: Escherichia coli ATCC 25922; test: MBC assay; format: cell-based; details: colony counting, 99.9% criterion
Text: as §1

[6] = system: Staphylococcus epidermidis ATCC 12228; test: MBC assay; format: cell-based; details: colony counting, 99.9% criterion
Text: as §1

[7] = system: Staphylococcus aureus ATCC 43300; test: MBC assay; format: cell-based; details: colony counting at concentrations surpassing the MIC, 99.9% criterion
Text: as §1

[8] = system: Streptococcus dysgalactiae CVCC 3938; test: MIC assay; format: cell-based; details: 96-well plate, 10^5 CFU/mL, 37 °C, 12 to 18 h
Protocol: (§2) A series of concentration gradients of peptide solution (10, 20, 40, 80, 160, 320, 640, and 1280 µg/mL) and the bacterial suspension (10^5 CFU/mL) were added to a 96-well plate at a volume ratio of 10 µL: 90 µL. Subsequently, the plate was incubated at 37 °C for 12 to 18 h. The concentration in the final well of the 96-well plate where no bacterial growth is evident corresponds to the MIC value.

[9] = system: Streptococcus agalactiae ATCC 13813; test: MIC assay; format: cell-based; details: 96-well plate, 10^5 CFU/mL, 37 °C, 12 to 18 h
Protocol: as §2

[10] = system: Pseudomonas aeruginosa ATCC 10104; test: MIC assay; format: cell-based; details: 96-well plate, 10^5 CFU/mL, 37 °C, 12 to 18 h
Protocol: as §2

[11] = system: Escherichia coli ATCC 25922; test: MIC assay; format: cell-based; details: 96-well plate, 10^5 CFU/mL, 37 °C, 12 to 18 h
Protocol: as §2

[12] = system: Staphylococcus epidermidis ATCC 12228; test: MIC assay; format: cell-based; details: 96-well plate, 10^5 CFU/mL, 37 °C, 12 to 18 h
Protocol: as §2

[13] = system: Staphylococcus aureus ATCC 43300; test: MIC assay; format: cell-based; details: 96-well plate, 10^5 CFU/mL, 37 °C, 12 to 18 h
Protocol: as §2

[14] = system: mouse erythrocytes; test: Hemolytic activity; format: cell-based; details: 1 h, 37 °C, absorbance 540 nm
Protocol: Equal volumes of the erythrocyte suspension and the peptide dilutions were combined and incubated for one hour at 37 °C. Subsequently, the mixture was centrifuged at 2000 rpm for 5 min, and the supernatant was transferred to a 96-well plate. The absorbance was then measured at 540 nm. Triton X-100 and physiological saline were employed as positive and negative controls, respectively. The percentage of hemolysis was calculated via the following formula:Hemolysis (%) = [(Apeptide − Asaline)/(A0.1% Triton X-100 − Asaline)] × 100%.

[15] = system: S. epidermidis ATCC 35984; test: MIC assay; format: cell-based, Staphylococcus epidermidis; details: 96-well plate, 10^5 CFU/mL, 37 °C, 12 to 18 h
Protocol: as §2

[16] = system: S. aureus CVCC 546; test: MIC assay; format: cell-based, Staphylococcus aureus; details: 96-well plate, 10^5 CFU/mL, 37 °C, 12 to 18 h
Protocol: as §2

[17] = system: S. aureus ATCC 25923; test: MIC assay; format: cell-based, Staphylococcus aureus; details: 96-well plate, 10^5 CFU/mL, 37 °C, 12 to 18 h
Protocol: as §2

[18] = system: HaCaT cells; test: Cytotoxicity analysis (CCK-8); format: cell-based, human; details: 2–256 µg/mL, 24 h, CCK-8, absorbance 450 nm, six replicates
Protocol: HaCaT cells, at a density of 2.5 × 10^5 cells/mL, were inoculated into 96-well plates and incubated in a cell culture incubator for 24 h. Following the removal of the medium, an equal volume of peptide solution, ranging in concentration from 2 to 256 µg/mL, was added, and the cells were incubated for an additional 24 h. The medium was subsequently removed, and the wells were washed three times with saline. CCK-8 solution ([…], 100 µL per well) was then added, and the plates were incubated for 2 h. Absorbance was measured at 450 nm using a microplate reader. Saline served as the negative control, while the medium without cells was used as the blank control. Six replicates were set for each concentration. Cell survival is calculated as follows: (As − Ab)/(Ac − Ab) × 100%.
As: Absorbance value of the experimental group (medium containing cells, sample, CCK-8)
Ac: Absorbance value of the control group (medium containing cells, no sample, CCK-8)
Ab: Absorbance value of the blank group (medium without cells, no sample, CCK-8)

[19] = system: S. aureus CVCC 546; test: MBC assay; format: cell-based, Staphylococcus aureus; details: colony counting, 99.9% criterion
Text: as §1

[20] = system: S. aureus ATCC 25923; test: MBC assay; format: cell-based, Staphylococcus aureus; details: colony counting, 99.9% criterion
Text: as §1

[21] = concentration range 20–2560 µg/mL

| SMILES | MBC [1] [µg/mL] | MBC [2] [µg/mL] | MBC [3] [µg/mL] | MBC [4] [µg/mL] | MBC [5] [µg/mL] | MBC [6] [µg/mL] | MBC [7] [µg/mL] | MIC [8] [µg/mL] | MIC [9] [µg/mL] | MIC [10] [µg/mL] | MIC [11] [µg/mL] | MIC [12] [µg/mL] | MIC [13] [µg/mL] | MIC [15] [µg/mL] | MIC [16] [µg/mL] | MIC [17] [µg/mL] | cytotoxicity towards HaCaT cells [18] | MBC [19] [µg/mL] | MBC [20] [µg/mL] | hemolysis [14, 21] | other results |
| --- | --- | --- | --- | --- | --- | --- | --- | --- | --- | --- | --- | --- | --- | --- | --- | --- | --- | --- | --- | --- | --- |
| CC[C@H](C)[C@@H]1NC(=O)[C@H](CO)NC(=O)[C@H](CCCCN)NC(=O)[C@@H]2CSSC[C@@H](C(=O)N[C@@H](Cc3ccc(O)cc3)C(=O)O)NC(=O)[C@H](CCCCN)NC(=O)[C@@H]3CSSC[C@H](NC(=O)[C@H](CCCCN)NC(=O)[C@H](CCSC)NC(=O)[C@H](CC(=O)O)NC(=O)[C@H](CC(=O)O)NC(=O)[C@H](CCC(=O)O)NC(=O)[C@H](CO)NC(=O)[C@H](Cc4c[nH]c5ccccc45)NC(=O)[C@@H]4CCCN4C(=O)CNC(=O)[C@H](CC(N)=O)NC(=O)[C@@H](NC(=O)CNC(=O)[C@H](Cc4ccccc4)NC(=O)CN)CSSC[C@H](NC(=O)[C@H](Cc4ccc(O)cc4)NC(=O)CNC(=O)CNC(=O)[C@H](CCCCN)NC(=O)[C@H](Cc4ccc(O)cc4)NC(=O)CNC(=O)[C@H](CCCCN)NC1=O)C(=O)N[C@@H](C)C(=O)N[C@@H](CCCCN)C(=O)NCC(=O)NCC(=O)N[C@@H](Cc1ccccc1)C(=O)N[C@@H](CC(C)C)C(=O)N3)C(=O)N[C@@H](Cc1c[nH]cn1)C(=O)N[C@@H](CC(N)=O)C(=O)N[C@@H](Cc1c[nH]cn1)C(=O)N2 [PPI42, reference compound] (H-GFGCNGPWSEDDMKCHNHCKSIKGYKGGYCAKGGFLCKCY-OH; disulfide 4-30, 15-37, 19-39) | 8 (≈ 1.82 µM) | 4 (≈ 0.912 µM) | 0.5 (≈ 0.114 µM) | >64 | >64 | 8 (≈ 1.82 µM) | 8 (≈ 1.82 µM) | 4 (≈ 0.912 µM) | 0.5 (≈ 0.114 µM) | >64 | >64 | 4 (≈ 0.912 µM) | 8 (≈ 1.82 µM) | 2 (≈ 0.456 µM) | 2 (≈ 0.456 µM) | 8 (≈ 1.82 µM) | growth-promoting effects | 4 (≈ 0.912 µM) | 16 (≈ 3.65 µM) | – | hemolysis ([14]; 2560 µg/mL): 10%; hemolysis ([14]; up to 1280 µg/mL): minimal hemolysis |
| CC[C@H](C)[C@@H]1NC(=O)[C@H](CO)NC(=O)[C@H](CCCCN)NC(=O)[C@@H]2CSSC[C@@H](C(=O)N[C@@H](Cc3ccc(O)cc3)C(=O)O)NC(=O)[C@H](CCCCN)NC(=O)[C@@H]3CSSC[C@H](NC(=O)[C@H](CCCCN)NC(=O)[C@H](CCSC)NC(=O)[C@H](CC(=O)O)NC(=O)[C@H](CC(=O)O)NC(=O)[C@H](CCC(=O)O)NC(=O)[C@H](CC(N)=O)NC(=O)[C@H](Cc4c[nH]c5ccccc45)NC(=O)[C@@H]4CCCN4C(=O)CNC(=O)[C@H](CC(N)=O)NC(=O)[C@@H](NC(=O)CNC(=O)[C@H](Cc4ccccc4)NC(=O)CN)CSSC[C@H](NC(=O)[C@H](Cc4ccc(O)cc4)NC(=O)CNC(=O)CNC(=O)[C@H](CCCCN)NC(=O)[C@H](Cc4ccc(O)cc4)NC(=O)CNC(=O)[C@H](CCCCN)NC1=O)C(=O)N[C@@H](C)C(=O)N[C@@H](CCCCN)C(=O)NCC(=O)NCC(=O)N[C@@H](Cc1ccccc1)C(=O)N[C@@H](CC(C)C)C(=O)N3)C(=O)N[C@@H](Cc1c[nH]cn1)C(=O)N[C@@H](CC(N)=O)C(=O)N[C@@H](Cc1c[nH]cn1)C(=O)N2 [PPI45] (H-GFGCNGPWNEDDMKCHNHCKSIKGYKGGYCAKGGFLCKCY-OH; disulfide 4-30, 15-37, 19-39) | 16 (≈ 3.62 µM) | 4 (≈ 0.906 µM) | 0.5 (≈ 0.113 µM) | >64 | >64 | 4 (≈ 0.906 µM) | 4 (≈ 0.906 µM) | 1 (≈ 0.226 µM) | 0.5 (≈ 0.113 µM) | >64 | >64 | 4 (≈ 0.906 µM) | 4 (≈ 0.906 µM) | 16 (≈ 3.62 µM) | 4 (≈ 0.906 µM) | 16 (≈ 3.62 µM) | did not exhibit cytotoxicity | 4 (≈ 0.906 µM) | 16 (≈ 3.62 µM) | no hemolysis | – |
| CC[C@H](C)[C@@H]1NC(=O)[C@H](CO)NC(=O)[C@H](CCCCN)NC(=O)[C@@H]2CSSC[C@@H](C(=O)N[C@@H](Cc3ccc(O)cc3)C(=O)O)NC(=O)[C@H](CCCCN)NC(=O)[C@@H]3CSSC[C@H](NC(=O)[C@H](CCCNC(=N)N)NC(=O)[C@H](CC(C)C)NC(=O)[C@H](CC(=O)O)NC(=O)[C@H](CC(=O)O)NC(=O)[C@H](CCC(=O)O)NC(=O)[C@H](CO)NC(=O)[C@H](Cc4c[nH]c5ccccc45)NC(=O)[C@@H]4CCCN4C(=O)CNC(=O)[C@H](CC(N)=O)NC(=O)[C@@H](NC(=O)CNC(=O)[C@H](Cc4ccccc4)NC(=O)CN)CSSC[C@H](NC(=O)[C@H](Cc4ccc(O)cc4)NC(=O)CNC(=O)CNC(=O)[C@H](CCCCN)NC(=O)[C@H](Cc4ccc(O)cc4)NC(=O)CNC(=O)[C@H](CCCCN)NC1=O)C(=O)N[C@@H](C)C(=O)N[C@@H](CCCCN)C(=O)NCC(=O)NCC(=O)N[C@@H](Cc1ccccc1)C(=O)N[C@@H](CC(C)C)C(=O)N3)C(=O)N[C@@H](Cc1c[nH]cn1)C(=O)N[C@@H](CC(N)=O)C(=O)N[C@@H](Cc1c[nH]cn1)C(=O)N2 [PPI47] (H-GFGCNGPWSEDDLRCHNHCKSIKGYKGGYCAKGGFLCKCY-OH; disulfide 4-30, 15-37, 19-39) | 16 (≈ 3.64 µM) | 4 (≈ 0.909 µM) | 0.5 (≈ 0.114 µM) | >64 | >64 | 8 (≈ 1.82 µM) | 8 (≈ 1.82 µM) | 2 (≈ 0.455 µM) | 0.5 (≈ 0.114 µM) | >64 | >64 | 4 (≈ 0.909 µM) | 4 (≈ 0.909 µM) | 16 (≈ 3.64 µM) | 4 (≈ 0.909 µM) | 16 (≈ 3.64 µM) | did not exhibit cytotoxicity | 4 (≈ 0.909 µM) | 16 (≈ 3.64 µM) | no hemolysis | – |
